Measured values as given in patent US20250002854A1, “METHODS OF GENERATING POPULATIONS OF TUMOUR-INFILTRATING T CELLS” (LYTIX BIOPHARMA AS, priority 2016, published 2025).
Square brackets hold non-standard residues; d marks the D form. Ends that are not written are not given here. Dip = N[C@H](C(=O)O)C(c1ccccc1)c1ccccc1

How the values were obtained:
B16F1 cells [1] = assay: In vitro cytotoxicity, MTT assay (IC50 4h); format: cell-based, murine; conditions: B16F1, 4 h
Source text: JM1, a rat hepatocellular carcinoma, HEPG2 and BEL7402, both human hepatocellular carcinomas, were kindly provided by Dr. Pål-Dag Line, Director, Department of Transplantation Medicine, Oslo University Hospital. B16F1 (ATCC, CRL-6323), a murine skin malignant melanoma, MDA-MB-435S (HTB-129), a human malignant melanoma originating from a breast metastases, Malme-3M (HTB-64), a human malignant melanoma derived from a lung metastases, MRC-5 (ATCC, CCL-171), normal human lung fibroblasts, SK-N-AS (ATCC, CRL-2137), a human neuroblastoma cell line derived from a bone marrow metastases, HT-29 (ATCC, HTB-38), a human colorectal adenocarcinoma and HUV-EC-C (ATCC, CRL-1730), a human vascular endothelium cell line, were all purchased from the American Type Culture Collection (ATCC-LGC Standards, Rockville, MD, USA). HaCat, a human keratinocyte cell line, was kindly provided by Dr. Ingvild Pettersen, Department of Host Microbe Interactions, University of Tromsø. A375, a malignant melanoma cell line of human origin, was purchased from Public Health England (PHE Culture Conditions, Porton, Down, Salisbury, UK). JM1, A375, BEL7402, HEPG2 and B16F1 were all maintained in culture media consisting of DMEM (high glucose), while SK-N-AS, HT-29 and MDA-MB-435S were cultured in an RPMI-1640 medium containing 2 mM L-glutamine and sodium bicarbonate. […]

A20, murine lymphoma = assay: LysoTracker DND-26 in non-melanocytic cell line; format: cell-based; conditions: data not shown
[2] = previous studies by Ausbaucher et al.; cited from earlier work
[3] = test system: Human osteosarcoma U2OS cells; assay: Transmission electron microscopy of U2OS cells after LTX-315; format: cell-based
Experimental: Cytoplasmic membrane disintegration was carried out as described in FORVEILLE S. et al., Cell Cycle 2015, 14: 3506-12.
Human osteosarcoma U2OS cells were cultured in Glutamax-containing DMEM medium supplemented with 10% fetal calf serum (FCS), and […] HEPES buffer. Cells were grown at 37° C. in a humidified incubator under a 5% CO2 atmosphere.
For ultrastructural studies, human osteosarcoma U2OS cells were fixed in 1.6% glutaraldehyde (v/v in 0.1 M phosphate buffer) for 1 h, collected by scraping, centrifuged and the pellet was post-fixed 1% osmium tetroxide (w/v in 0.1 M phosphate buffer). Following dehydration through a graded ethanol series, cells were embedded in Epon™ 812 and ultrathin sections were stained with standard uranyl acetate and lead citrate. Images were taken using a Tecnai 12 electron microscope (FEI, Eindhoven, the Netherlands).

Murine B16 melanoma = assay: immunoSEQ TCR repertoire characterisation after intratumoural LTX-315; format: in vivo, mice
Experimental: This study was carried out using an “immunoSEQ™” T cell receptor (TCR) repertoire characterisation platform by Adaptive Biotechnologies™. The platform combines novel multiplex PCR1 with highly optimized primer sets and deep sequencing techniques that exclusively target TCR genes. The immunoSEQ platform enables researchers to analyse the adaptive immune system with exceptional depth and specificity.
Murine B16 melanoma cells were harvested, washed and injected intradermally in ten mice. 8 days after tumour injection, peptide treatment was initiated using single intratumoural injections of LTX-315 (1.0 mg LTX-315/50 μl saline) once or twice in five mice. Vehicle control of saline only (0.9% NaCl in sterile H2O) was administered to the other five mice. Animals were then euthanized on day 15.
Tumour tissue (10 mg) and whole blood (150-200 μl) was taken from each mouse for TCR repertoire characterisation analysis. Blood samples provide information regarding the immune repertoire in the periphery, whilst the tumour samples provide a focused view of the repertoire.
Sequence analysis was carried out by Adaptive Biotechnologies™ at a survey-level resolution with respect to the tissue samples and at a deep-level resolution with respect to the blood samples.
Clonality quantitates the extent of mono-or oligoclonal expansion by measuring the shape of the clone frequency distribution. Values range from 0 to 1, where values approaching 1 indicate a nearly monoclonal population. FIG. 15 provides example distribution curves of populations with a clonality of 0.05 (A) and of 0.32 (B).

B16F1 cells [4] = assay: Secondary tumour challenge of animals cured by LTX-315; format: in vivo, C57BL/6 mice
Experimental: Tumour cells were harvested, washed in RPMI-1640 and injected intradermally (i.d.) into the right side of the abdomen in C57BL/6 mice (5×10^4 B16F1 cells per mouse/50 μl RPMI-1640). Palpable tumours (20-30 mm^2) were injected i.t. with single doses of LTX-315 or LTX-328 dissolved in saline (1.0 mg peptide/50 μl saline) once a day for 3 consecutive days, and the vehicle control was saline only (0.9% NaCl in sterile H2O). Tumour size was measured using an electronic caliper and expressed as the area of an ellipse [(maximum dimension/2)×(minimum dimension/2)×π]. Animals were then euthanized when the product of the perpendicular tumour dimensions reached 130 mm^2 or when tumour ulceration developed. […] Animals surviving the i.d. tumour re-challenge were later given a second tumour rechallenge intravenously (i.v.) (2×10^5 cells) through the tail vein. Lungs were harvested on day 19 after the i.v. re-challenge. All mice were monitored for tumour size and survival.

Compound	IC50 (B16F1 cells [1])	LysoTracker DND-26 signal (A20, murine lymphoma)	mitochondrial membrane potential (TMRE) [2]	cell morphology after administration (TEM) [3]	TCR Template Molecules (Murine B16 melanoma; Blood)	TCRs (T cell estimate) per nucleated cell (%) (Murine B16 melanoma; Blood)	Unique TCRs (Murine B16 melanoma; Blood)	TCR Template Molecules (Murine B16 melanoma; Tissue (tumour))	animals with no tumour take (B16F1 cells [4]; i.d. re-challenge)	animals with tumour growth absent (B16F1 cells [4]; i.d. re-challenge with B16F1 cells 4-5 weeks after CR)	CD3+ T cell infiltration of lung tumour foci (B16F1 cells [4]; i.v. re-challenge, histology)	mean # tumour foci (lung) (B16F1 cells [4]; i.v. re-challenge, n=7)
Cl.Cl.NCCNC(=O)C(CN)(CCCc1ccccc1)CCCc1ccccc1 [LTX-401]	27 µM	achieved similar results	did not compromise the mitochondrial membrane potential	–	–	–	–	–	–	–	–	–
K-K-W-W-K-K-W-Dip-K-NH2 (KKWWKKW[Dip]K-NH2) [LTX-315]	–	–	–	necrotic morphology with disintegration of cytoplasmic membranes	135,283	17.4%	116,120	12,331	60%	15 out of the 25	significantly more infiltrated by CD3+ T cells	15.86
